Row | SMILES | melting point
1 | CCCCC1(C(F)(F)F)c2cc(Cl)ccc2Nc2c1cc[nH]c2=O (centres unmarked) [Example 18, 5-Butyl-7-chloro-5-trifluoromethyl-5,10-dihydrobenzo[b]-1,7-naphthyridin-1(2H)-one] | 245 to 248 °C
2 | O=c1[nH]ccc2c1Nc1ccc(Cl)cc1C2(Cc1ccccn1)C(F)(F)F (centres unmarked) [Example 19, 7-Chloro-5-(2-pyridylmethyl)-5-trifluoromethyl-5,10-dihydrobenzo[b]-1,7-naphthyridin-1(2H)-one] | 270 to 275 °C
3 | O=c1[nH]ccc2c1Nc1ccc(Cl)cc1C2(CCC1CC1)C(F)(F)F (centres unmarked) [Example 20, 7-Chloro-5-(2-cyclopropylethyl)-5-trifluoromethyl-5,10-dihydrobenzo[b]-1,7-naphthyridin-1(2H)-one] | 220 to 222 °C
4 | O=c1[nH]ccc2c1Nc1ccc(Cl)cc1C2(C#CC1CC1)C(F)(F)F (centres unmarked) [Example 21, 7-Chloro-5-cyclopropylethynyl-5-trifluoromethyl-5,10-dihydrobenzo[b]-1,7-naphthyridin-1(2H)-one] | 247 to 250 °C
5 | O=c1[nH]ccc2c1Nc1ccc(Cl)cc1C2(CNC1CC1)C(F)(F)F (centres unmarked) [Example 22, 7-Chloro-5-(N-cyclopropylaminomethyl)-5-trifluoromethyl-5,10-dihydrobenzo[b]-1,7-naphthyridin-1(2H)-one] | 230 to 235 °C
6 | O=c1[nH]ccc2c1Nc1ccc(Cl)cc1C2(CO)C(F)(F)F (centres unmarked) [Example 23, 7-Chloro-5-hydroxymethyl-5-trifluoromethyl-5,10-dihydrobenzo[b]-1,7-naphthyridin-1(2H)-one] | 270 to 275 °C
7 | CCCOCC1(C(F)(F)F)c2cc(Cl)ccc2Nc2c1cc[nH]c2=O (centres unmarked) [Example 27, 7-Chloro-5-(n-propoxymethyl)-5-trifluoromethyl-5,10-dihydrobenzo[b]-1,7-naphthyridin-1(2H)-one] | 162 to 165 °C
8 | CC(C)OCC1(C(F)(F)F)c2cc(Cl)ccc2Nc2c1cc[nH]c2=O (centres unmarked) [Example 28, 7-Chloro-5-(i-propoxymethyl)-5-trifluoromethyl-5,10-dihydrobenzo[b]-1,7-naphthyridin-1(2H)-one] | 185 to 190 °C
9 | COCCC1(C(F)(F)F)c2cc(Cl)ccc2Nc2c1cc[nH]c2=O (centres unmarked) [Example 29, 7-Chloro-5-(2-methoxyethyl)-5-trifluoromethyl-5,10-dihydrobenzo[b]-1,7-naphthyridin-1(2H)-one] | 268 to 271 °C
10 | CC(C)NCC1(C(F)(F)F)c2cc(Cl)ccc2Nc2c1cc[nH]c2=O (centres unmarked) [Example 30, 7-Chloro-5-(i-propylaminomethyl)-5-trifluoromethyl-5,10-dihydrobenzo[b]-1,7-naphthyridin-1(2H)-one] | 235 to 240 °C
11 | CC(C)N(C)CC1(C(F)(F)F)c2cc(Cl)ccc2Nc2c1cc[nH]c2=O (centres unmarked) [Example 31, 7-Chloro-5-(N-methyl-N-i-propylaminomethyl)-5-trifluoromethyl-5,10-dihydrobenzo[b]-1,7-naphthyridin-1(2H)-one] | 105 to 110 °C
12 | O=c1[nH]ccc2c1Nc1ccc(Cl)cc1C2(CNC1CC1)C(F)(F)F (centres unmarked) [Example 32, 7-Chloro-5-(cyclopropylaminomethyl)-5-trifluoromethyl-5,10-dihydrobenzo[b]-1,7-naphthyridin-1(2H)-one] | 242 to 245 °C
13 | CCCNCC1(C(F)(F)F)c2cc(Cl)ccc2Nc2c1cc[nH]c2=O (centres unmarked) [Example 33, 7-Chloro-5-(n-propylaminomethyl)-5-trifluoromethyl-5,10-dihydrobenzo[b]-1,7-naphthyridin-1(2H)-one] | 243 to 245 °C
14 | O=c1[nH]ccc2c1Nc1ccc(Cl)cc1C2(CNC1CCC1)C(F)(F)F (centres unmarked) [Example 34, 7-Chloro-5-(cyclobutylaminomethyl)-5-trifluoromethyl-5,10-dihydrobenzo[b]-1,7-naphthyridin-1(2H)-one] | 250 to 254 °C
15 | CC(C)CNCC1(C(F)(F)F)c2cc(Cl)ccc2Nc2c1cc[nH]c2=O (centres unmarked) [Example 35, 7-Chloro-5-(i-butylaminomethyl)-5-trifluoromethyl-5,10-dihydrobenzo[b]-1,7-naphthyridin-1(2H)-one] | 210 to 215 °C
16 | CC(C)OCC1(C(F)(F)F)c2cc(Cl)ccc2Nc2c1cc[nH]c2=O (centres unmarked) [Example 36, 7-Chloro-5-(i-propoxymethyl)-5-trifluoromethyl-5,10-dihydrobenzo[b]-1,7-naphthyridin-1(2H)-one] | 195 to 197 °C
17 | CC(C)SCC1(C(F)(F)F)c2cc(Cl)ccc2Nc2c1cc[nH]c2=O (centres unmarked) [Example 44, 7-Chloro-5-(i-propylsulfanylmethyl)-5-trifluoromethyl-5,10-dihydrobenzo[b]-1,7-naphthyridin-1(2H)-one] | 220 to 221 °C
18 | CC(C)SCC1(C(F)(F)F)c2cc(F)ccc2Nc2c1cc[nH]c2=O (centres unmarked) [Example 45, 7-Fluoro-5-(i-propylsulfanylmethyl)-5-trifluoromethyl-5,10-dihydrobenzo[b]-1,7-naphthyridin-1(2H)-one] | 215 to 216 °C
19 | CC(C)(C)SCC1(C(F)(F)F)c2cc(Cl)ccc2Nc2c1cc[nH]c2=O (centres unmarked) [Example 46, 7-Chloro-5-(t-butylsulfanylmethyl)-5-trifluoromethyl-5,10-dihydrobenzo[b]-1,7-naphthyridin-1(2H)-one] | 247 to 249 °C
20 | CCCCC1(C)c2cc(Cl)ccc2Nc2c1cc[nH]c2=O (centres unmarked) [Example 61a, 7-Chloro-5-(n-butyl)-5-methyl-5,10-dihydrobenzo[b]-1,7-naphthyridin-1(2H)-one] | 177 to 179 °C
21 | CCOCCC1(C(F)(F)F)c2cc(Cl)ccc2Nc2c1cc[nH]c2=O (centres unmarked) [Example 62, 7-Chloro-5-(ethoxyethyl)-5-trifluoromethyl-5,10-dihydrobenzo[b]-1,7-naphthyridin-1(2H)-one] | 240 to 245 °C
22 | CCCCC1(C#N)c2cc(Cl)ccc2Nc2c1cc[nH]c2=O (centres unmarked) [Example 63, 7-Chloro-5-(n-butyl)-5-cyano-5,10-dihydrobenzo[b]-1,7-naphthyridin-1(2H)-one] | 182 to 185 °C
23 | CCCCC1(CO)c2cc(Cl)ccc2Nc2c1cc[nH]c2=O (centres unmarked) [Example 64, 7-Chloro-5-(n-butyl)-5-(hydroxymethyl)-5,10-dihydrobenzo[b]-1,7-naphthyridin-1(2H)-one] | 260 to 265 °C
24 | CCCCC1(C(F)F)c2cc(Cl)ccc2Nc2c1cc[nH]c2=O (centres unmarked) [Example 64a, 7-Chloro-5-(n-butyl)-5-difluoromethyl-5,10-dihydrobenzo[b]-1,7-naphthyridin-1(2H)-one] | 198 to 200 °C
25 | CC(C)OCC1(C(F)F)c2cc(Cl)ccc2Nc2c1cc[nH]c2=O (centres unmarked) [Example 64b, 7-Chloro-5-(i-propoxymethyl)-5-difluoromethyl-5,10-dihydrobenzo[b]-1,7-naphthyridin-1(2H)-one] | 138 to 142 °C
26 | CCCCC1(C(C)(F)F)c2cc(Cl)ccc2Nc2c1cc[nH]c2=O (centres unmarked) [Example 65, 7-Chloro-5-(n-butyl)-5-(1,1-difluoroethyl)-5,10-dihydrobenzo[b]-1,7-naphthyridin-1(2H)-one] | 120 to 122 °C
27 | CCCCC1(C(C)(F)F)c2cc(F)ccc2Nc2c1cc[nH]c2=O (centres unmarked) [Example 66, 5-(n-Butyl)-5-(1,1-difluoroethyl)-7-Fluoro-5,10-dihydrobenzo[b]-1,7-naphthyridin-1(2H)-one] | 267 to 270 °C
28 | CCCCC1(C(C)(F)F)c2cc(C#N)ccc2Nc2c1cc[nH]c2=O (centres unmarked) [Example 67, 7-Cyano-5-(n-butyl)-5-(1,1-difluoroethyl)-5,10-dihydrobenzo[b]-1,7-naphthyridin-1(2H)-one] | 132.2 to 134.7 °C
29 | CCOCC1(C(C)(F)F)c2cc(Cl)ccc2Nc2c1cc[nH]c2=O (centres unmarked) [Example 68, 7-Chloro-5-(ethoxymethyl)-5-(1,1-difluoroethyl)-5,10-dihydrobenzo[b]-1,7-naphthyridin-1(2H)-one] | 265 to 267 °C
